Series [1] is described as follows: Microsome Stability (15 min), rat. The class given is in vitro ADME. The conditions noted are these: microsomes, Phase I (NADPH), read-out: Microsome Stability (15 min) T ½ Phase I rat.
Series [2] can be described thus: PAMPA permeability pH 7.4.
A further series deals with PI3K alpha (Homo sapiens, UniProt P42336). Put plainly: PI3K-alpha Fluorescence Polarization Assay. The class given is biochemical. A general note: In fluorescence polarisation assays a small probe gives low polarisation when free and higher when bound to something large.
Sequence of PI3K alpha (P42336 whole entry, species assumed): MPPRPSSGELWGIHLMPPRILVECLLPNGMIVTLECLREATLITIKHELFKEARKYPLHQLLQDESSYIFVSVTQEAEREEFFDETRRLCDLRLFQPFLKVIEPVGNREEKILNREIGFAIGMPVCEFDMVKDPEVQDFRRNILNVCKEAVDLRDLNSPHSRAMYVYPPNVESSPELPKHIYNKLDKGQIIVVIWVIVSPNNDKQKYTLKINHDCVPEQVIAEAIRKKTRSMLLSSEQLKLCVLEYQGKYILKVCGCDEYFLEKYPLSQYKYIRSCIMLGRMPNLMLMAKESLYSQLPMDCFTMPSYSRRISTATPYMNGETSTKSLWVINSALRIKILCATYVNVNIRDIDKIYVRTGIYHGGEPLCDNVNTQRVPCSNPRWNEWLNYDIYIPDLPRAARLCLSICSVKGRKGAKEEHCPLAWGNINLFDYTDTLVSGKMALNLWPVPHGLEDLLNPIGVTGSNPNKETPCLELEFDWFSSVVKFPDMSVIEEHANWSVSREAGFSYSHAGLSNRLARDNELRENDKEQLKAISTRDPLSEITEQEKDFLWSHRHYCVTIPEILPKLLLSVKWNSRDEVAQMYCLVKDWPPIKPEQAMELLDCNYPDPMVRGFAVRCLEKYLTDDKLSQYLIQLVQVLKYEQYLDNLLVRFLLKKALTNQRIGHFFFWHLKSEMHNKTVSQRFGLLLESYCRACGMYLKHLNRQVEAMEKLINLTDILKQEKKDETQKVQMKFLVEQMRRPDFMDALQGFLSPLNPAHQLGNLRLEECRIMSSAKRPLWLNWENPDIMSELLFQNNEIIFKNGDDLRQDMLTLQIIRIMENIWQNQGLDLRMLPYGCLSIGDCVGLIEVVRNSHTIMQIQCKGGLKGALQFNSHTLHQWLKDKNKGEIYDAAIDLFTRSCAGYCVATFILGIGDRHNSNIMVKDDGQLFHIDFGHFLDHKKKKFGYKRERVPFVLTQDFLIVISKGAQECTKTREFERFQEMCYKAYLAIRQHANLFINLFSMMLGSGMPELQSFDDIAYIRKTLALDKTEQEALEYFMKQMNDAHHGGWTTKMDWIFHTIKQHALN
Sequence of PI3K alpha (P27986 whole entry partner, species assumed): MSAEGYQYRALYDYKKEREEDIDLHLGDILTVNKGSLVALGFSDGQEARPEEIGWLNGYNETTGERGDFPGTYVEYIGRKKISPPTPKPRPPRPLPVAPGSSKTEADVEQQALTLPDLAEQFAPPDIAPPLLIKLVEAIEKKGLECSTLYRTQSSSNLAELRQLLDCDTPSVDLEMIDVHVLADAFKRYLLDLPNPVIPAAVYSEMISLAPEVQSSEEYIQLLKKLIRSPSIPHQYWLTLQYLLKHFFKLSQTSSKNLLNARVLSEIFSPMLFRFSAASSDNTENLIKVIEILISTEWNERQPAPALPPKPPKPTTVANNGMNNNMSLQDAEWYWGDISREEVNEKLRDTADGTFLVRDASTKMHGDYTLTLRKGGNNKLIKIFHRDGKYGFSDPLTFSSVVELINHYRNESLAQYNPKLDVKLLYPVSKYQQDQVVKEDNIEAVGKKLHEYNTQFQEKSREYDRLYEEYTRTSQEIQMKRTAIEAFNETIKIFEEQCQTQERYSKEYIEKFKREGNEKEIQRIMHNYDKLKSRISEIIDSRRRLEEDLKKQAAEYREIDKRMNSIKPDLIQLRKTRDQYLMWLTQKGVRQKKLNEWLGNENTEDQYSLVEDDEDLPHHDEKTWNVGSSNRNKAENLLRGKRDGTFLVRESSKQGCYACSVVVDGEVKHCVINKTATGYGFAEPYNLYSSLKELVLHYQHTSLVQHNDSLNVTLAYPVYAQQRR
The nature of series [3]: Buffer Stability (37° C.).
A short description of series [4]: Microsome Stability (15 min), human. The conditions noted are these: microsomes, Phase I (NADPH), read-out: Microsome Stability (15 min) T ½ Phase I human. The class given is in vitro ADME.
Series [5] can be described thus: Microsome Stability (15 min), nude mouse. Type of series: in vitro ADME. The conditions noted are these: microsomes, Phase I (NADPH), read-out: Microsome Stability (15 min) T ½ Phase I nude mouse.
The nature of series [6]: Plasma Stability (37° C.), rat.
Series [7] in a line: In vivo blood/plasma and tumor levels of prodrug and metabolites after 50 mg, kg po. The conditions noted are these: 50 mg.

These results are taken from patent US20100061982A1, “3-SUBSTITUTED-1H-INDOLE, 3-SUBSTITUTED-1H-PYRROLO[2,3-B]PYRIDINE AND 3-SUBSTITUTED-1H-PYRROLO[3,2-B]PYRIDINE COMPOUNDS, THEIR USE AS MTOR KINASE AND PI3 KINASE INHIBITORS, AND THEIR SYNTHESES” (priority 2008, published 2010).

As usually defined, the IC50 is the concentration that inhibits the measured activity by half.

Read-outs that look alike come from different tables or passages of the source.

As for `Cn1cc(/C=C2\Oc3cc(O)cc(O)c3C2=O)c2c(-c3ccccc3)cccc21` [(2Z)-4,6-dihydroxy-2-[(1-methyl-4-phenyl-1H-indol-3-yl)methylene]-1-benzofuran-3(2H)-one], in series [1], the half-life came out at 21 min. Further, the “PAMPA Pe” value in series [2] was 0.04 10e−6 cm/s.

For the compound `COc1ccc2[nH]c(-c3ccccc3)c(/C=C3\Oc4cc(OC(=O)c5ccccc5)cc(OC(=O)c5ccccc5)c4C3=O)c2c1` [Example 6, (2Z)-2-[(5-methoxy-2-phenyl-1H-indol-3-yl)methylene]-3-oxo-2,3-dihydro-1-benzofuran-4,6-diyl dibenzoate], the IC50 at PI3K alpha (read-out: PI3K alpha Mean IC50) turned out to be 0.472 µM. The “PAMPA Pe” value in series [2] was 0.12 10e−6 cm/s.

Consider `COc1ccc2c(c1)c(/C=C1\Oc3cc(OC(=O)c4ccccc4)cc(OC(=O)c4ccccc4)c3C1=O)c(C)n2CCN1CCN(C)CC1` [Example 16, (2Z)-2-({5-methoxy-2-methyl-1-[2-(4-methylpiperazin-1-yl)ethyl]-1H-indol-3-yl}methylene)-3-oxo-2,3-dihydro-1-benzofuran-4,6-diyl dibenzoate], for which the half-life in series [1] came out at 10 min. Also, the IC50 on PI3K alpha (read-out: PI3K alpha Mean IC50) is 8.53 µM. Also, in series [3], the “Buffer Stability (37° C.) % Remaining (at 16-23 hours) SGF” value was 99%, the “Buffer Stability (37° C.) % Remaining (at 16-23 hours) SIF” value stood at 64%, the “Buffer Stability (37° C.) % Remaining (at 16-23 hours) pH 1” value is given as 96% and the “Buffer Stability (37° C.) % Remaining (at 16-23 hours) pH 4.5” value was determined as 73%. Also, in series [3], the “Buffer Stability (37° C.) % Remaining (at 16-23 hours) pH 6.6” value stood at 75%, the “Buffer Stability (37° C.) % Remaining (at 16-23 hours) pH 7.4” value was 4% and the “Buffer Stability (37° C.) % Remaining (at 16-23 hours) pH 9” value is recorded as 0%. Moreover, the “PAMPA Pe” value in series [2] was 0 10e−6 cm/s. In addition, in series [4], the half-life is above 30 min.

In the case of `COc1ccc2[nH]c(-c3ccccc3)c(/C=C3\Oc4cc(OC(=O)N(C)C)ccc4C3=O)c2c1` [Example 18, (2Z)-2-[(5-methoxy-2-phenyl-1H-indol-3-yl)methylene]-3-oxo-2,3-dihydro-1-benzofuran-6-yl dimethylcarbamate], the half-life in series [5] was above 30 min. In addition, in series [1], the half-life turned out to be 28 min. At PI3K alpha, this compound came in with an IC50 of 6.35 µM. Also, in series [3], the “Buffer Stability (37° C.) % Remaining (at 16-23 hours) SGF” value was determined as 100%, the “Buffer Stability (37° C.) % Remaining (at 16-23 hours) SIF” value is listed as 101%, the “Buffer Stability (37° C.) % Remaining (at 16-23 hours) pH 1” value stood at 99% and the “Buffer Stability (37° C.) % Remaining (at 16-23 hours) pH 4.5” value was 100%. In addition, in series [3], the “Buffer Stability (37° C.) % Remaining (at 16-23 hours) pH 6.6” value worked out at 100%, the “Buffer Stability (37° C.) % Remaining (at 16-23 hours) pH 7.4” value turned out to be 100% and the “Buffer Stability (37° C.) % Remaining (at 16-23 hours) pH 9” value came to 99%. Further, the “PAMPA Pe” value in series [2] is listed as “Undetected”. Moreover, in series [4], the half-life was determined as 13 min. Further, in series [6], the “Plasma Stability (37° C.) % Remaining (3-3.5 hours) rat” value (“Plasma Stability (37° C.) % Remaining” for short) came out at 0%.

In the case of `COc1ccc2[nH]c(-c3ccccc3)c(/C=C3\Oc4cc(OC(=O)Oc5ccccc5)ccc4C3=O)c2c1` [Example 19, (2Z)-2-[(5-methoxy-2-phenyl-1H-indol-3-yl)methylene]-3-oxo-2,3-dihydro-1-benzofuran-6-yl phenyl carbonate], the half-life in series [5] (nude, mouse) was above 30 min. The half-life in series [1] is above 30 min. Besides, the IC50 at PI3K alpha (read-out: PI3K alpha Mean IC50) stood at 0.181 µM. For the same compound, in series [3], the “Buffer Stability (37° C.) % Remaining (at 16-23 hours) SGF” value is 106%, the “Buffer Stability (37° C.) % Remaining (at 16-23 hours) SIF” value came to 35%, the “Buffer Stability (37° C.) % Remaining (at 16-23 hours) pH 1” value is recorded as 104% and the “Buffer Stability (37° C.) % Remaining (at 16-23 hours) pH 4.5” value is given as 74%. In series [3], the “Buffer Stability (37° C.) % Remaining (at 16-23 hours) pH 6.6” value is 60%, the “Buffer Stability (37° C.) % Remaining (at 16-23 hours) pH 7.4” value is 54% and the “Buffer Stability (37° C.) % Remaining (at 16-23 hours) pH 9” value was determined as 0%. The “PAMPA Pe” value in series [2] is recorded as 0 10e−6 cm/s. Also, the half-life in series [4] came to 28 min. The “Plasma Stability (37° C.) % Remaining” value in series [6] was 10%.

In the case of `COc1ccc2c(c1)c(/C=C1\Oc3cc(OC(=O)N(c4ccccc4)c4ccccc4)cc(OC(=O)N(c4ccccc4)c4ccccc4)c3C1=O)cn2CCCN(C)C` [Example 21, (2Z)-2-({1-[3-(dimethylamino)propyl]-5-methoxy-1H-indol-3-yl}methylene)-3-oxo-2,3-dihydro-1-benzofuran-4,6-diyl bis(diphenylcarbamate)], the half-life in series [5] was above 30 min. The same compound had an IC50 against PI3K alpha above 10 µM. In series [3], the “Buffer Stability (37° C.) % Remaining (at 16-23 hours) SGF” value was found to be 99%, the “Buffer Stability (37° C.) % Remaining (at 16-23 hours) SIF” value is reported as 45%, the “Buffer Stability (37° C.) % Remaining (at 16-23 hours) pH 1” value came to 118% and the “Buffer Stability (37° C.) % Remaining (at 16-23 hours) pH 4.5” value amounted to 103%. For the same compound, in series [3], the “Buffer Stability (37° C.) % Remaining (at 16-23 hours) pH 6.6” value turned out to be 91%, the “Buffer Stability (37° C.) % Remaining (at 16-23 hours) pH 7.4” value is recorded as 98% and the “Buffer Stability (37° C.) % Remaining (at 16-23 hours) pH 9” value amounted to 87%. The “PAMPA Pe” value in series [2] is 0 10e−6 cm/s. For the same compound, the “Plasma Stability (37° C.) % Remaining” value in series [6] stood at 107%.

In the case of `COC(=O)Oc1cc(OC(=O)OC)c2c(c1)O/C(=C\c1c(-c3ccccc3)[nH]c3ccc(OC)cc13)C2=O` [Example 22, (2Z)-2-[(5-methoxy-2-phenyl-1H-indol-3-yl)methylene]-3-oxo-2,3-dihydro-1-benzofuran-4,6-diyl dimethyl biscarbonate], in series [5] (nude, mouse), the half-life was 4 min. In addition, the IC50 at PI3K alpha (read-out: PI3K alpha Mean IC50) was 0.013 µM. Besides, in series [3], the “Buffer Stability (37° C.) % Remaining (at 16-23 hours) SGF” value is listed as 87%, the “Buffer Stability (37° C.) % Remaining (at 16-23 hours) SIF” value came to 0%, the “Buffer Stability (37° C.) % Remaining (at 16-23 hours) pH 1” value was 80% and the “Buffer Stability (37° C.) % Remaining (at 16-23 hours) pH 4.5” value stood at 37%. Moreover, in series [3], the “Buffer Stability (37° C.) % Remaining (at 16-23 hours) pH 6.6” value is 42%, the “Buffer Stability (37° C.) % Remaining (at 16-23 hours) pH 7.4” value was found to be 0% and the “Buffer Stability (37° C.) % Remaining (at 16-23 hours) pH 9” value amounted to 0%. Besides, the “PAMPA Pe” value in series [2] was 0 10e−6 cm/s. Moreover, the half-life in series [4] worked out at 3 min. Moreover, the “Plasma Stability (37° C.) % Remaining” value in series [6] was determined as 0%.

As for `COc1ccc2c(c1)c(/C=C1\Oc3cc(OC(=O)c4ccccc4)cc(OC(=O)c4ccccc4)c3C1=O)cn2CCCN(C)C` [Example 24, (2Z)-2-({1-[3-(dimethylamino)propyl]-5-methoxy-1H-indol-3-yl}methylene)-3-oxo-2,3-dihydro-1-benzofuran-4,6-diyl dibenzoate], the half-life in series [1] is 12 min. In addition, on PI3K alpha (read-out: PI3K alpha Mean IC50), the IC50 was above 10 µM. In addition, in series [3], the “Buffer Stability (37° C.) % Remaining (at 16-23 hours) SGF” value is 104%, the “Buffer Stability (37° C.) % Remaining (at 16-23 hours) SIF” value is given as 0%, the “Buffer Stability (37° C.) % Remaining (at 16-23 hours) pH 1” value turned out to be 86% and the “Buffer Stability (37° C.) % Remaining (at 16-23 hours) pH 4.5” value is on record as 71%. Further, in series [3], the “Buffer Stability (37° C.) % Remaining (at 16-23 hours) pH 6.6” value is on record as 50%, the “Buffer Stability (37° C.) % Remaining (at 16-23 hours) pH 7.4” value worked out at 5% and the “Buffer Stability (37° C.) % Remaining (at 16-23 hours) pH 9” value is 0%. In series [2], the “PAMPA Pe” value was 0 10e−6 cm/s. In addition, in series [4], the half-life was 22 min. In series [6], the “Plasma Stability (37° C.) % Remaining” value worked out at 6%.

As for `COc1ccc2c(c1)c(/C=C1\Oc3cc(OC(=O)N(C(C)C)C(C)C)cc(OC(=O)N(C(C)C)C(C)C)c3C1=O)c(C)n2CCN1CCN(C)CC1` [Example 28, (2Z)-2-({5-methoxy-2-methyl-1-[2-(4-methylpiperazin-1-yl)ethyl]-1H-indol-3-yl}methylene)-3-oxo-2,3-dihydro-1-benzofuran-4,6-diyl bis(diisopropylcarbamate)], the half-life in series [5] came to 24 min; in series [4], 8 min. Moreover, the plasma prodrug concentration in series [7] (0.5 h) was 1141, ng, ml; in series [7] (2 h), 940, ng, ml; in series [7] (6 h (third value)), 1106 ng, ml. This compound also yielded an IC50 at PI3K alpha of 9.5 µM. For the same compound, in series [2], the “PAMPA Pe” value is 0.05 10e−6 cm/s.

Consider `CCOP(=O)(OCC)Oc1cc2c(c(OP(=O)(OCC)OCC)c1)C(=O)/C(=C/c1c(-c3ccccc3)[nH]c3ccc(OC)cc13)O2` [Example 32, tetraethyl (2Z)-2-[(5-methoxy-2-phenyl-1H-indol-3-yl)methylene]-3-oxo-2,3-dihydro-1-benzofuran-4,6-diyl bis(phosphate)], for which the half-life in series [1] turned out to be 7 min; in series [4], 2 min. The compound further returned an IC50 on PI3K alpha of 11 µM. Moreover, in series [2], the “PAMPA Pe” value is given as 0 10e−6 cm/s.

Consider `CCOP(=O)(OCC)Oc1ccc2c(c1)O/C(=C\c1c(-c3ccccc3)[nH]c3ccc(OC)cc13)C2=O` [Example 34, diethyl (2Z)-2-[(5-methoxy-2-phenyl-1H-indol-3-yl)methylene]-3-oxo-2,3-dihydro-1-benzofuran-6-yl phosphate], for which the half-life in series [5] is above 30 min; in series [1], 17 min; in series [4], 26 min. The plasma prodrug concentration in series [7] (0.5 h) is listed as 6 ng, ml; in series [7] (2 h), 2 ng, ml; in series [7] (6 h (third value)) it was “bql”. Also, at PI3K alpha, the IC50 was determined as 5.67 µM. Moreover, the “PAMPA Pe” value in series [2] is 0 10e−6 cm/s.
